{"source": "patent US20230045688A1", "about": "(priority 2020, published 2023)", "origin": "cited, not measured here", "tested_on": "SARS-CoV", "details": "disruption of oligosaccharide formation; Vincent et al. 2005; Savarino et al. 2006"}
{"smiles": "CCN(CC)CCCC(C)Nc1ccnc2cc(Cl)ccc12", "note": "(stereo not shown) [chloroquine]", "values": [{"measurement": "SARS-CoV infectivity", "result": "significantly decreases SARS-CoV infectivity"}]}
